One assay concerns the target CDK1/CycB1 (Homo sapiens, UniProt P06493). Briefly: Kinase profiling. Format: biochemical.
The target in a further assay is CDK9/CycK (Homo sapiens, UniProt P50750). In words: Kinase profiling. Particulars: 10 semi-logarithmic dilutions from 50 μM, singlicate. Format: biochemical.
Another assay deals with CDK8/CycC (Homo sapiens, UniProt P49336). In words: Kinase profiling. In kind it is biochemical. Particulars: 10 semi-logarithmic dilutions from 50 μM, singlicate.
Another assay concerns the target CDK2/CycE1 (Homo sapiens, UniProt P24941). Briefly: Kinase profiling. In kind it is biochemical.
For the next assay, the target named is CDK7/CycH/MAT1 (Homo sapiens, UniProt P50613). Briefly: Kinase profiling. In kind it is biochemical. Particulars: 10 semi-logarithmic dilutions from 50 μM, singlicate.
A further assay has as its target ERK1 (Homo sapiens, UniProt P27361). Briefly: Kinase profiling. Format: biochemical. The following applies: 10 semi-logarithmic dilutions from 50 μM, singlicate.
The target of a further assay is CDC7/DBF4 (Homo sapiens, UniProt O00311). Briefly: Kinase profiling. Format: biochemical. The following applies: 10 semi-logarithmic dilutions from 50 μM, singlicate; read-out: IC50 CDC7/DBF4.
A further assay addresses CDK6/CycD1 (Homo sapiens, UniProt Q00534). Briefly: Kinase profiling. In kind it is biochemical. Particulars: 10 semi-logarithmic dilutions from 50 μM, singlicate.
The target of another assay is CDK4/CycD1 (Homo sapiens, UniProt P11802). In words: Kinase profiling. Particulars: 10 semi-logarithmic dilutions from 50 μM, singlicate. Format: biochemical.
The target of another assay is CDK6/CycD3 (Homo sapiens, UniProt Q00534). In words: Kinase profiling. In kind it is biochemical. Particulars: 10 semi-logarithmic dilutions from 50 μM, singlicate.
In another assay the target is CDK3/CycE1 (Homo sapiens, UniProt Q00526). Briefly: Kinase profiling. Format: biochemical. Particulars: 10 semi-logarithmic dilutions from 50 μM, singlicate.
Assay [1] deals with panel of 27 kinases (CDK family members). In words: Kinase profiling, results in words. In kind it is biochemical. Particulars: from Table 1.
In a further assay the target is PIM1 (Homo sapiens, UniProt P11309). In words: Kinase profiling. In kind it is biochemical. The following applies: 10 semi-logarithmic dilutions from 50 μM, singlicate.
In another assay the target is CDK1/CycA2 (Homo sapiens, UniProt P06493). Briefly: Kinase profiling. In kind it is biochemical.
Assay [2] concerns H460 lung carcinoma cell line. In words: Proliferation assay: determination of GI50. In kind it is cell-based, human. Particulars: Table 3, 48 h, n = 2 independent experiments. The method, then: (§1) The following human tumor cell lines, all Retinoblastoma (Rb)-proficient, were used in this study: MDA-MB231 (breast cancer), MDA-MB453 (breast cancer), U87MG (glioblastoma) and H460 (lung cancer). MDA-MB468 (breast cancer) and SW1783 (glioblastoma) Rb-deficient cells were also included in the study, as well as the MCF10A non-transformed mammary epithelial cell line. Tumor cell lines were maintained in DMEM or RPMI-1640 medium, depending on the cell line, supplemented with 10% FBS. MCF10A cells were grown in complete mammary epithelial growth medium (MEGM, Lonza). Cell lines were authenticated by short tandem repeat (STR) loci profiling with the GenePrint® 10 System (Promega).
(§2) All human cancer cell lines (Table 2) were obtained from the American Type Culture Collection, and were maintained in DMEM (Hyclone) or RPMI-1640 medium (Sigma) supplemented with 10% fetal bovine serum (Sigma). Non-transformed MCF10 cell line was maintained in MEGM Mammary Epithelial Cell Growth Medium (Lonza). Immortalized mouse embryonic fibroblasts (MEFs) were maintained in DMEM with 10% fetal bovine serum.
(§3) 48 h later cells were fixed with PFA 4% for 15 minutes, stained with 10 μg/ml Hoechst 33342 (Molecular Probes, Thermo Fisher) for 30 minutes and washed twice with PBS. Cells were imaged in a high content screening system (Opera Phoenix™, Perkin Elmer) using a 20× dry objective (30 fields/well). Cell counts were determined by the Opera software (Perkin Elmer) and data were further processed with SPSS software. GI50 was calculated by estimating the absolute IC50 using dose-response inhibition tool in Prism6 (Graphpad Software Inc.).

Assay [3] deals with MCF10 non-transformed mammary epithelial cell line. Briefly: Proliferation assay: determination of GI50. Format: cell-based, human. Particulars: Table 3, 48 h, n = 2 independent experiments. As to the method:
as §1, §2, §3

Assay [4] deals with U87MG glioblastoma cell line. In words: Proliferation assay: determination of GI50. The following applies: Table 3, 48 h, n = 3 independent experiments, read-out: GI50 U87MG. In kind it is cell-based, human. The method, then:
as §1, §2, §3

The subject of assay [5] is MDA-MB-231 breast carcinoma cell line. Briefly: Proliferation assay: determination of GI50. In kind it is cell-based, human. The following applies: Table 3, 48 h, n = 3 independent experiments, read-out: GI50 MDA-MB231. As to the method: as §1, §2, §3
The test system of assay [6] is MDA-MB-231 human breast cancer cells. In words: Cell cycle analysis (DNA content, flow cytometry). Format: cell-based. The following applies: GI50 concentration; FIG. 1. The method, then:
FIG. 1 depicts DNA content profiles of MDA-MB-231 human breast cancer cells treated with subject compounds or commercial CDK inhibitors, showing the percentage of cells at the different cell cycle phases after 48 hours of the treatments indicated. (n=6 technical replicates).
Cells were collected by trypsinization, washed with PBS and fixed with cold 70% ethanol. Cells were treated with 250 μg/ml RNase (Qiagen) for 30 minutes at 37° C. and stained with 10 μg/ml Propidium Iodide (Sigma). Cell cycle was analyzed by flow cytometry using a LSR Fortessa Analyzer. Cell cycle profiles were generated and analyzed with FlowJo software.
Cells were collected by tripsinization at several times after treatment with the indicated compounds and, then, fixed with cold 70% Ethanol. DNA content was determined by staining with propidium iodide (10 μg/ml, Sigma Aldrich). Data acquisition was performed with a LSR Fortessa analyzer (BD Biosciences) and analysed using FlowJo software.
On the technique in general: In flow cytometry, cells or beads pass a laser one at a time.

In the next assay the target is CDK2/CycA2 (Homo sapiens, UniProt P24941). In words: Kinase profiling. In kind it is biochemical.
The next assay addresses T1, AKT1 aa1-480 (Homo sapiens, UniProt P31749).
T1 construct: AKT1 aa1-480
In words: Kinase profiling. Format: biochemical. Particulars: 10 semi-logarithmic dilutions from 50 μM, singlicate.

Another assay has as its target CDK4/CycD3 (Homo sapiens, UniProt P11802). Briefly: Kinase profiling. In kind it is biochemical.
Another assay addresses CDK19/CycC (Homo sapiens, UniProt Q9BWU1). In words: Kinase profiling. Format: biochemical. Particulars: 10 semi-logarithmic dilutions from 50 μM, singlicate.
A further assay deals with CDK3/CycC (Homo sapiens, UniProt Q00526). Briefly: Kinase profiling. Format: biochemical. Particulars: 10 semi-logarithmic dilutions from 50 μM, singlicate.
[7] abbreviates: 10 semi-logarithmic dilutions from 50 μM, singlicate.

Molecules are shown by their SMILES. pIC50: −log10 of the molar value. Like-named read-outs stand apart in the source and are kept apart here.

Chain of PIM1 (P11309 whole entry, species assumed): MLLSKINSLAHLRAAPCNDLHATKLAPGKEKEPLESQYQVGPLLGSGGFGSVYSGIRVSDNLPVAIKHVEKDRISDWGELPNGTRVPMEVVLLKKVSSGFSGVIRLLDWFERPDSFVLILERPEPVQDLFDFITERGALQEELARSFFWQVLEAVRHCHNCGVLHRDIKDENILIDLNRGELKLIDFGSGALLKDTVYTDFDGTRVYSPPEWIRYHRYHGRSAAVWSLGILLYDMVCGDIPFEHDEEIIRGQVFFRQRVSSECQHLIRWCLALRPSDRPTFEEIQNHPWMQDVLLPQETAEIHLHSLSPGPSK
Chain of CDK9/CycK (P50750 whole entry): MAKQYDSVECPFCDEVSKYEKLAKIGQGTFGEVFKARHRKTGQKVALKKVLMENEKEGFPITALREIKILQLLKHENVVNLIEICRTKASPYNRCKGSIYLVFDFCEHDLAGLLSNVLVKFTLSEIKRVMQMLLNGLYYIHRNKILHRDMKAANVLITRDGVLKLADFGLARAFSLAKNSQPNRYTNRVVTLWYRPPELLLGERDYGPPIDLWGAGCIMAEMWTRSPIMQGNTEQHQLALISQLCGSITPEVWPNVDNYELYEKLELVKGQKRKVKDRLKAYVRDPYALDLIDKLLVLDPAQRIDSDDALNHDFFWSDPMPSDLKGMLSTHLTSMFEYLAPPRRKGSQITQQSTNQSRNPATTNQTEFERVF
Chain of CDK9/CycK (O75909 whole entry partner): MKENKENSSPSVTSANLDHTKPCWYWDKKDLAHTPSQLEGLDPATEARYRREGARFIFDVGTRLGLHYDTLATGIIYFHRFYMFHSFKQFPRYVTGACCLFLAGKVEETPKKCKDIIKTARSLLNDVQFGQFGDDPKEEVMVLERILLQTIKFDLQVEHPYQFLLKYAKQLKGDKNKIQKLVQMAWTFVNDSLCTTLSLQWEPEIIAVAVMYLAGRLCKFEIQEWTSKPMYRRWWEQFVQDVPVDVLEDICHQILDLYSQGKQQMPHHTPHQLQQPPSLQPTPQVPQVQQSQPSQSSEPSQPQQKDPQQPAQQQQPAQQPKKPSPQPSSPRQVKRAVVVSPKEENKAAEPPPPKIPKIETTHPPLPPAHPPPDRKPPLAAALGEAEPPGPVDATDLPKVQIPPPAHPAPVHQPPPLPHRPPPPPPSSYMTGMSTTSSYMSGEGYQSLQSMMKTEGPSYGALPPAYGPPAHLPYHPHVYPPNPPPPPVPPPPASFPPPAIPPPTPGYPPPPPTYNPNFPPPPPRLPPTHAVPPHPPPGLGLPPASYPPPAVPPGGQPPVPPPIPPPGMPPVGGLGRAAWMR
Chain of CDK3/CycC (Q00526 whole entry): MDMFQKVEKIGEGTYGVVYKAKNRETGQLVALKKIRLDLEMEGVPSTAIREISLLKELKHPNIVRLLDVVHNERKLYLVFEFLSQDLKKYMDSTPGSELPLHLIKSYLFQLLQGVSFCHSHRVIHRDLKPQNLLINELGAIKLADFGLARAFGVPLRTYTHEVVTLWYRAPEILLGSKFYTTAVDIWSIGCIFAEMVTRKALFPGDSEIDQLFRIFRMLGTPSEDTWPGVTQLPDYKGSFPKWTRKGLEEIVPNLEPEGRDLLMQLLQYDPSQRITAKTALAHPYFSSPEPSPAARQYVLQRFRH
Chain of CDK3/CycC (P24863 whole entry partner): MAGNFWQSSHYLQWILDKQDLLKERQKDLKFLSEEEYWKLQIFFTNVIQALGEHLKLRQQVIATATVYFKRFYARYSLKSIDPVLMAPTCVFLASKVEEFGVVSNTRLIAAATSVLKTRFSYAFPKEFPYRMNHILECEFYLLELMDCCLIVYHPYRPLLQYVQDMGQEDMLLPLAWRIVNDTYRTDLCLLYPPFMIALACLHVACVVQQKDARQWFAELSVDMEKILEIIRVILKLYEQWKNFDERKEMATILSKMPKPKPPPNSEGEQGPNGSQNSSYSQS
Chain of CDK3/CycE1 (Q00526 whole entry): as the sequence (Q00526 whole entry) above
Chain of CDK3/CycE1 (P24864 whole entry partner): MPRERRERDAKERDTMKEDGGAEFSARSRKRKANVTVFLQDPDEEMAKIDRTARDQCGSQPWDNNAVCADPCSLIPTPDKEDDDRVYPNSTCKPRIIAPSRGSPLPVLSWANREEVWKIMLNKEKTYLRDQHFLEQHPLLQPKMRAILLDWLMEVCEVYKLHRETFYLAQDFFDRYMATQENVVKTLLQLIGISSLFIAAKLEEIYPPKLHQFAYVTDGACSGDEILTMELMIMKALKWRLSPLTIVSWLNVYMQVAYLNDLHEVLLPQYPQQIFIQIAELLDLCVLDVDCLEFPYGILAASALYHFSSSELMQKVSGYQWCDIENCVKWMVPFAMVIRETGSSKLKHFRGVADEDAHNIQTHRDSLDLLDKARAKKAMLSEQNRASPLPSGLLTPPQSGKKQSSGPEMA
T1 sequence (P31749 whole entry, the tested form may be a part): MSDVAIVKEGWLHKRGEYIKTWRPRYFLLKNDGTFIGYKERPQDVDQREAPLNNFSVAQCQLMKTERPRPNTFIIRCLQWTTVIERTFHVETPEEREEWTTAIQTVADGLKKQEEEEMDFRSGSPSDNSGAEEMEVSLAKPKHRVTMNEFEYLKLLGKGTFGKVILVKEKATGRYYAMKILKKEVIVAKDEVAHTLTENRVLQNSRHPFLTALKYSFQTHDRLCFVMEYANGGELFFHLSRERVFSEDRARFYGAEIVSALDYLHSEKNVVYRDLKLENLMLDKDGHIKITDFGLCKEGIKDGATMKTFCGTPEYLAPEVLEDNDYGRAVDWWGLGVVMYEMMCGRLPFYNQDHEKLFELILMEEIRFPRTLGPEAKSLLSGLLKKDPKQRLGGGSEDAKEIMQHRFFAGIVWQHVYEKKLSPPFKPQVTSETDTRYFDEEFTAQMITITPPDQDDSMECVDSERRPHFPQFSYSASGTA
Chain of CDC7/DBF4 (O00311 whole entry): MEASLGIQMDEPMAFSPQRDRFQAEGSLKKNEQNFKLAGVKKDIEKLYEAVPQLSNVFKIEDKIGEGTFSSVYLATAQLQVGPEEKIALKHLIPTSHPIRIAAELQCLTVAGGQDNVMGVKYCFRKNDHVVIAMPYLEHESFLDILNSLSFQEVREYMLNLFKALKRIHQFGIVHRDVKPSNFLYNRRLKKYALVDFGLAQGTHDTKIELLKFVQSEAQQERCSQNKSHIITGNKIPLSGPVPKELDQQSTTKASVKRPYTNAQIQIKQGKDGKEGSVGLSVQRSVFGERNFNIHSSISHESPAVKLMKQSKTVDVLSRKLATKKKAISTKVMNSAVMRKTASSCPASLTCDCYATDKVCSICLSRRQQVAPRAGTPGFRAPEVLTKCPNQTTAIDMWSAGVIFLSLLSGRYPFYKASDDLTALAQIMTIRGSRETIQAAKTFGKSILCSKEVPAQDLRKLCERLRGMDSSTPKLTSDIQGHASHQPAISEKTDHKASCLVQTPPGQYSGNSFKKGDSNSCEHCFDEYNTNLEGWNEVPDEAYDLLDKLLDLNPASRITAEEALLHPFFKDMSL
Chain of CDC7/DBF4 (Q9UBU7 whole entry partner): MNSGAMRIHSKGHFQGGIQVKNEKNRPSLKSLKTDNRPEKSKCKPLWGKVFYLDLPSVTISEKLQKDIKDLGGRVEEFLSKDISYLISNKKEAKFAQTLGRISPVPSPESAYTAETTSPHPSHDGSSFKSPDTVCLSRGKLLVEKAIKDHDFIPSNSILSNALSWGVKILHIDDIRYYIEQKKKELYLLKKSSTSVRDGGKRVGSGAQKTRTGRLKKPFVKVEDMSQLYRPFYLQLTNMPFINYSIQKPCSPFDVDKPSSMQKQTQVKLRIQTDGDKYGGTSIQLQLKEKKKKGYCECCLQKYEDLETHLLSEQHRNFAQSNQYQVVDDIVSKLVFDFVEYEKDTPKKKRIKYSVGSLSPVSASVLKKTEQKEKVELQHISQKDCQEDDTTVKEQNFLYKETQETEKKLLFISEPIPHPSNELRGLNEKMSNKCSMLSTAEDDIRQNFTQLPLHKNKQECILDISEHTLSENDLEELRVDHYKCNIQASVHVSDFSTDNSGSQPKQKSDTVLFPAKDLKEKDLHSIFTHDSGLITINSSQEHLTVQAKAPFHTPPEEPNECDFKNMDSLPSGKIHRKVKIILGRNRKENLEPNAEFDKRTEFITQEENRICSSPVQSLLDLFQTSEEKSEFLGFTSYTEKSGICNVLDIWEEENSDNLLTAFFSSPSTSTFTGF
Chain of CDK4/CycD1 (P11802 whole entry): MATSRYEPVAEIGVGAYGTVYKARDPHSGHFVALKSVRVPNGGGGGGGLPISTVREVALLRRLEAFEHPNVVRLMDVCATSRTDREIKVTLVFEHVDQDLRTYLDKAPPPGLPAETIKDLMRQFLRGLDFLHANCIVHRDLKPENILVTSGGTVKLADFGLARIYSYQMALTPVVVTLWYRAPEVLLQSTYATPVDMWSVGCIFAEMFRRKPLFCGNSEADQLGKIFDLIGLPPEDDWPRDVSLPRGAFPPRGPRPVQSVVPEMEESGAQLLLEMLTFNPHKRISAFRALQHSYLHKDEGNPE
Chain of CDK4/CycD1 (P24385 whole entry partner): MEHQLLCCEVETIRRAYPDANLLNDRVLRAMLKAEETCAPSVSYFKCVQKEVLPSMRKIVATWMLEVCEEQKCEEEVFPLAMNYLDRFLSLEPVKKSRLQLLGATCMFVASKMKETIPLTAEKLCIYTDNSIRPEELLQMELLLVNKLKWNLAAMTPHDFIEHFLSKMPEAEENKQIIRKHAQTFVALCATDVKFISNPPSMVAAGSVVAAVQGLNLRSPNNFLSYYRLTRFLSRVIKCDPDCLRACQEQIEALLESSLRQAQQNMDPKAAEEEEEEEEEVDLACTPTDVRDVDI

In general, GI50 refers to the concentration that inhibits growth by half. On to `CC(=O)c1c(C)c2cnc(Nc3ccc(N4CCC(CCCO)CC4)cc3)nc2n([C@@H]2CC3CCC2C3)c1=O` (stereo partly drawn) [PS008, 6-acetyl-8-((2R)-bicyclo[2.2.1]heptan-2-yl)-2-((4-(4-(3-hydroxypropyl)piperidin-1-yl)phenyl)amino)-5-methylpyrido[2,3-d]pyrimidin-7(8H)-one], for which the pIC50 against CDK1/CycB1 (setting [7]) was 6.14; against CDK9/CycK it was 7.17; on CDK8/CycC, 4.56; against CDK2/CycE1 (setting [7]), 5.44; against CDK7/CycH/MAT1 it was 4.93; on ERK1, 6.02. The pIC50 at CDC7/DBF4 was under 4.30; at CDK6/CycD1 it was 7.71; against CDK4/CycD1 it was 7.00; against CDK6/CycD3, 6.17; at CDK3/CycE1 it was 4.59; on PIM1 it was under 4.30. Moreover, the pIC50 is 4.41 on CDK1/CycA2 (setting [7]); 5.45 on CDK2/CycA2 (setting [7]); under 4.30 at AKT1 aa1-480; 6.58 on CDK4/CycD3 (setting [7]); 4.59 against CDK19/CycC; 5.73 against CDK3/CycC. Moreover, in assay [1], the “additional affinity for CDK1/2” value was “additional affinity”. Further, the GI50 in assay [2] (Homo sapiens, NCI-H460) was found to be 2.57 µM; in assay [3] (Homo sapiens, MCF10), 0.7 µM; in assay [4] (Homo sapiens, U-87 MG), 2.44 µM; in [5] (Homo sapiens, MDA-MB-231), 4.5 µM. For the same molecule, in assay [6], the “cell cycle arrest by DNA content” value is recorded as “induced accumulation of cells in G0/G1”.

For `O=c1ccc2cnc(Nc3ccc(N4CCC(CCCO)CC4)cc3F)nc2n1[C@@H]1CC2CCC1C2` (stereo partly drawn) [PS002, 8-((2R)-bicyclo[2.2.1]heptan-2-yl)-2-((2-fluoro-4-(4-(3-hydroxypropyl)piperidin-1-yl)phenyl)amino)pyrido[2,3-d]pyrimidin-7(8H)-one], the pIC50 against CDK1/CycB1 (setting [7]) is 4.38; against CDK9/CycK, 5.15; against CDK8/CycC, 6.91; against CDK2/CycE1 (setting [7]), 5.14; on CDK7/CycH/MAT1, 4.39; at ERK1, 4.32. For the same molecule, the pIC50 on CDC7/DBF4 was 4.84; on CDK6/CycD1 it was 6.31; against CDK4/CycD1, 5.90; on CDK6/CycD3, 4.90; against CDK3/CycE1, 4.77; at PIM1, 4.55. The pIC50 is 4.47 on CDK1/CycA2 (setting [7]); 4.71 at CDK2/CycA2 (setting [7]); under 4.30 on AKT1 aa1-480; 5.42 against CDK4/CycD3 (setting [7]); 4.60 against CDK19/CycC; 4.57 on CDK3/CycC. Besides, the GI50 in assay [2] (Homo sapiens, NCI-H460) is 18 µM; in [3] (Homo sapiens, MCF10), 34.6 µM; in [4] (Homo sapiens, U-87 MG) it was over 50 µM; in assay [5] (Homo sapiens, MDA-MB-231) it was 35.2 µM.

Regarding `O=c1ccc2cnc(Nc3ccc(N4CCC(CCCO)CC4)cc3)nc2n1C1CC2CCC1C2` (centres unmarked) [PD-0183812, reference compound], the pIC50 on CDK1/CycB1 is 4.49; on CDK9/CycK it was 6.76; at CDK8/CycC, 6.59; against CDK2/CycE1, 6.91; at CDK7/CycH/MAT1, 4.34; on ERK1, 4.53. Moreover, the pIC50 at CDC7/DBF4 is 4.73; against CDK6/CycD1, 7.70; against CDK4/CycD1, 7.50; on CDK6/CycD3, 6.52; at CDK3/CycE1 it was 6.05; at PIM1, 4.45. The pIC50 against CDK1/CycA2 was 4.54; against CDK2/CycA2 it was 6.47; against AKT1 aa1-480, 4.32; on CDK4/CycD3, 7.14; against CDK19/CycC it was 4.76; at CDK3/CycC, 5.28. Besides, the GI50 turned out to be 1.57 µM in [2], 3.3 µM in [3], 7.45 µM in [4] and 2.15 µM in [5]. In assay [6], the “cell cycle arrest by DNA content” value is “arrested cells with a 4N DNA content”.

As to `O=c1ccc2cnc(Nc3ccc(N4CCC(CCCO)CC4)c(F)c3)nc2n1[C@@H]1CC2CCC1C2` (stereo partly drawn) [PS003, 8-((2R)-bicyclo[2.2.1]heptan-2-yl)-2-((3-fluoro-4-(4-(3-hydroxypropyl)piperidin-1-yl)phenyl)amino)pyrido[2,3-d]pyrimidin-7(8H)-one], the pIC50 was 5.33 against CDK1/CycB1 (setting [7]); 6.34 on CDK9/CycK; 6.17 against CDK8/CycC; 6.26 against CDK2/CycE1 (setting [7]); 4.70 on CDK7/CycH/MAT1; under 4.30 on ERK1. Besides, the pIC50 is 5.12 on CDC7/DBF4; 7.14 at CDK6/CycD1; 6.83 against CDK4/CycD1; 6.21 at CDK6/CycD3; 5.95 against CDK3/CycE1; under 4.30 on PIM1. Moreover, the pIC50 against CDK1/CycA2 (setting [7]) is 5.10; against CDK2/CycA2 (setting [7]), 6.09; at AKT1 aa1-480 it was under 4.30; against CDK4/CycD3 (setting [7]), 6.42; against CDK19/CycC it was 4.72; against CDK3/CycC, 5.40. Besides, the GI50 in assay [2] (Homo sapiens, NCI-H460) is 1.6 µM; in [3] (Homo sapiens, MCF10) it was 7.5 µM; in assay [4] (Homo sapiens, U-87 MG), 4.1 µM; in assay [5] (Homo sapiens, MDA-MB-231) it was 3.9 µM. Further, in assay [6], the “cell cycle arrest by DNA content” value is listed as “induced G2/M arrest”.
